Calls of active or inactive are those of the source. Cut-off read from the data, not from the text of the source: actives have a measured IC50 and inactives only a lower limit.

For the assay, the target named is Envelope glycoprotein gp160 (Human immunodeficiency virus 1, UniProt Q6QLK5). The experiment in a line: inhibitors of HIV fusion peptide binding, primary screen, biochemical, uHTS, fluorescence dequenching (AID 1986).
Chain of Envelope glycoprotein gp160 (Q6QLK5 whole entry, the tested form may be a part): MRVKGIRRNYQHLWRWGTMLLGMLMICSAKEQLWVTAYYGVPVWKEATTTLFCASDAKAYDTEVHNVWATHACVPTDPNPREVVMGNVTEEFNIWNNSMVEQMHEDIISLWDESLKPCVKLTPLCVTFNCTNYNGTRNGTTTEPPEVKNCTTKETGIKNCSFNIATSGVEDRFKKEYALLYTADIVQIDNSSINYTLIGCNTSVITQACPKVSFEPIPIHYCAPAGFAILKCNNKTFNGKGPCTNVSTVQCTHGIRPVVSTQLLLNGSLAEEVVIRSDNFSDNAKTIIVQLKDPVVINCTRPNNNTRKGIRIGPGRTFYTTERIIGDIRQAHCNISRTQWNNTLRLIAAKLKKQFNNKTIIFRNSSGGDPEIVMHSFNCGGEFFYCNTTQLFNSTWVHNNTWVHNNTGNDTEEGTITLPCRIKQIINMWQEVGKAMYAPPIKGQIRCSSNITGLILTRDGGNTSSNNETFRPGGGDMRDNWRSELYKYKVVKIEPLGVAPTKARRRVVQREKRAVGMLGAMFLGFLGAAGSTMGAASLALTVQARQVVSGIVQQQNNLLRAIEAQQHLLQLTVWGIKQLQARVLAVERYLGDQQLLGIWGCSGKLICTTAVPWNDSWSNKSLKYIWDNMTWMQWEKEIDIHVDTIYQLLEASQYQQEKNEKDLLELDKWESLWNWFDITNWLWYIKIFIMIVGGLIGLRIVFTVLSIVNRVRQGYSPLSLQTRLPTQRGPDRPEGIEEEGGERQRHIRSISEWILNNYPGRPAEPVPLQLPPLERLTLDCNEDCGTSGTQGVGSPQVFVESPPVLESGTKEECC
Regarding `Cc1cc(Cl)ccc1OC(C)C(=O)Nc1ccc(C(=O)Nc2ccccc2C(=O)O)cc1` (centres undefined), the 50% inhibitory concentration (IC50) (in general, the point on the concentration scale where inhibition reaches its midpoint) is 13.1 µM (active). The result for `O=C(COc1ccc(Cl)cc1)Nc1cc(NC(=O)COc2ccc(Cl)cc2)cc(C(=O)O)c1` reads 26.4 µM (active). The result for `CC1(c2ccccc2)CC(C)(C)N2C(=O)/C(=C3\SC(=S)NC3=O)c3cccc1c32` (centres undefined) reads 83.8 µM (active); that for `O=C1NN(c2ccccc2)C(=O)/C1=C\c1cccc(OC(=O)c2cccs2)c1`, 33.9 µM (active).

Source of the values: ChEMBL document CHEMBL1201862, “PubChem BioAssay data set” (2004).
